Three molecules from patent US20100297123A1, “COMBINATION THERAPY TO INHIBIT T CELL EFFECTOR FUNCTION” (priority 2009, published 2010) can be followed below.

Experiment [1] concerns mouse naive CD4 T cells. The experiment can be described thus: CFSE cell division assay of mouse naive CD4 T cells. It counts as cell-based. The settings on record: anti-CD3/28 stimulation, CFSE profiles after 3 days.
Text: Isolation and stimulation of mouse CD4 T cells. Spleen and lymph nodes were harvested from naive mice and homogenized through a strainer. RBC were lysed from the suspension using red blood cell lysing buffer (Sigma-Aldrich). Lymphocytes were isolated by density centrifugation using Lympholyte-M (Cedarlane Laboratories). CD4+ T cells were sorted via negative selection using an AutoMACS sorter (Miltenyi Biotec). BALB/c CD4+ T cells (5×103) were stimulated in 96-well U-bottom plates with equal numbers of polystyrene latex beads (Interfacial Dynamics) coated with 1.0 μg/ml anti-CD3 (145-2C11; eBioscience) and 0.5 μg/ml anti-CD28 (37.51; eBioscience). […] Anti-IL-2 Ab (JES6-1A12; eBioscience) was used at a concentration of 10 μg/ml. Cells were cultured in RPMI 1640 medium (Life Technologies) supplemented with 10% heat-inactivated FCS (Mediatech), 100 nM sodium pyruvate (Life Technologies), 2 mM L-glutamine (Life Technologies), 100 nM nonessential amino acids (Life Technologies), 100 U/ml penicillin/streptomycin (Life Technologies), and 5 nM 2-ME (Sigma-Aldrich). […]
Experiment [2] deals with effector CD4 T cells. The experiment can be described thus: CFSE proliferation assay of mouse effector CD4 T cells. Conditions: effector CD4 T cells stimulated with anti-CD3/28 and drug(s), FIG. 12B. It counts as cell-based. On the procedure:
Proliferation and cell division assays. Cells cultured in 96-well U-bottom plate wells were pulsed with 1 μCi of methyl-[^3H]thymidine (Amersham Biosciences) for 6 h during the last 72 h of stimulation and harvested onto filters (Wallac). Filters were wetted with Betaplate Scintillation fluid (PerkinElmer) and counts per minute read on a 1205 Betaplate Liquid Scintillation Counter (Wallac). For CFSE experiments, cells were labeled with 1 μM CFDA-SE (Sigma-Aldrich) in serum free RPMI 1640 medium for 10 min and washed twice before culturing. CFSE-labeled cells were assayed after 72 h of culture.
GRAIL is expressed during quiescence, lost upon activation. Naïve CD4 T cells were isolated from mouse and stimulated with anti-CD3 and anti-CD28 antibodies in vitro for the indicated number of hours (FIG. 10). Protein was collected and run by Western blot probing for GRAIL and β-actin. Effector CD4 T cells were made by first isolating from naïve mice, then stimulating with anti-CD3/28 for 3 days, split off and rested for 2 more days, then washed and put in fresh media for 2 additional days. Live CD4 T cells were then collected, shown to be at rest, and then activated in the same manner as described above. Protein samples were isolated and probed with anti-GRAII antibody as described in Example 1.
Shown in FIG. 12A, naïve CD4 T cells were labeled with CFSE, a dye that dilutes out with successive cell divisions. The naïve CD4 T cells were stimulated with anti-CD3/28 and the indicated drug(s) and CFSE profiles assessed after 3 days. […] A similar experiment was performed with effector CD4 T cells, prepared as described above.

Experiment [3] relates to GRAIL. As to the kind of experiment: GRAIL western blot of effector CD4 T cells. Conditions: effector CD4 T cells stimulated with anti-CD3/28, western blot, FIG. 12C. Format: cell-based, mouse. How it is done:
Immunoblots. Whole-cell lysates were made using lysis buffer consisting of 0.5% Nonidet P-40, 100 mM sodium chloride, 0.5 mM EDTA, 20 mM Tris (pH 7.6-8.0), with protease inhibitor mixture (Pierce) and phosphatase inhibitor mixture (Pierce). Protein samples were loaded on 4-15% Tris-HCl gels (Bio-Rad) and separated by SDS-PAGE. Protein was transferred from gel to Immobolin-P polyvinylidene difluoride membrane (Millipore) using Trans-Blot SD Semidry Transfer Apparatus (Bio-Rad) following the manufacturer's instructions. StartingBlock (Tris-buffered saline with 0.05% Tween 20) (Pierce) was used to block membranes and was also used during primary and secondary Ab staining. Secondary Abs were all HRP conjugated (Zymed Laboratories). ECL Plus Western Blotting Reagents (GE Healthcare) were used for chemiluminescent detection of protein. Chemiluminescence signal was exposed onto Amersham Hyperfilm ECL (GE Healthcare). Membranes were stripped using Restore Western Blot Stripping Buffer (Pierce). Densitometry was performed using ImageJ software (National Institutes of Health). […]
A general note: A western blot detects proteins with antibodies after separation by electrophoresis.

For `N#CC(=C(/N)Sc1ccccc1N)/C(C#N)=C(\N)Sc1ccccc1N` [U0126], the “cell division / proliferation by CFSE dilution” value in experiment [1] is listed as “inhibits proliferation”. For the same molecule, the “proliferation of effector CD4 T cells (CFSE)” value in experiment [2] is “does not inhibit proliferation”. Moreover, the “GRAIL retention in effector CD4 T cells” value in experiment [3] is listed as “does not lead to GRAIL retention”.
Consider `CC(=O)O[C@@H]1[C@@H](OC(C)=O)[C@@H](O)[C@H](Oc2c(-c3ccc(O)cc3)oc3cc(O)cc(O)c3c2=O)O[C@H]1C` [SL0101], for which, in experiment [2], the “proliferation of effector CD4 T cells (CFSE)” value is given as “does not work alone”.
On the same count and under the same terms, the same measure for `O=C(NOCC(O)CO)c1ccc(F)c(F)c1Nc1ccc(I)cc1F` (centres unmarked) [PD0325901, N-(2,3-dihydroxypropoxy)-3,4-difluoro-2-(2-fluoro-4-iodophenylamino)benzamide]: “does not work alone”.
